Values of other authors, collected in paper PMC4891577, “Exploiting Phenylpropanoid Derivatives to Enhance the Nutraceutical Values of Cereals and Legumes” (Frontiers in Plant Science, 2016).

Tested on: lipogenic proteins
Set-up: method as in Chavez-Santoscoy et al., 2014; Ramírez-Jiménez et al., 2015
Details: black bean flavonoid; ref Chavez-Santoscoy et al., 2014; Ramírez-Jiménez et al., 2015

| SMILES | effect on expression of lipogenic proteins |
| --- | --- |
| O=c1c(O[C@@H]2O[C@H](CO)[C@@H](O)[C@H](O)[C@H]2O)c(-c2ccc(O)c(O)c2)oc2cc(O)cc(O)c12 [quercetin 3-glucoside] | strong effects on down-regulation of expression of lipogenic proteins |

Tested on: Caco-2 cells
Set-up: method as in Hart et al., 2015
Details: polyphenols of black bean seed coats; ref Hart et al., 2015

| SMILES | effect on Fe uptake |
| --- | --- |
| O=c1c(OC2O[C@H](CO)[C@@H](O)[C@H](O)[C@H]2O)c(-c2cc(O)c(O)c(O)c2)oc2cc(O)cc(O)c12 (stereo partly drawn) [myricetin 3-glucoside] | inhibit Fe uptake |
| O=c1c(O)c(-c2ccc(O)cc2)oc2cc(O)cc(O)c12 [kaempferol] | promote Fe uptake |
| O=c1c(O)c(-c2cc(O)c(O)c(O)c2)oc2cc(O)cc(O)c12 [myricetin] | inhibit Fe uptake |
| O=c1c(O[C@@H]2O[C@H](CO)[C@@H](O)[C@H](O)[C@H]2O)c(-c2ccc(O)c(O)c2)oc2cc(O)cc(O)c12 [quercetin 3-glucoside] | inhibit Fe uptake |
| O=C(O)c1ccc(O)c(O)c1 [3,4-dihydroxybenzoic acid] | promote Fe uptake |
| O.Oc1cc(O)c2c(c1)O[C@H](c1ccc(O)c(O)c1)[C@@H](O)C2 [Catechin] | promote Fe uptake |
| O=c1c(O[C@@H]2O[C@H](CO)[C@@H](O)[C@H](O)[C@H]2O)c(-c2ccc(O)cc2)oc2cc(O)cc(O)c12 [kaempferol 3-glucoside] | promote Fe uptake |
| O=c1c(O)c(-c2ccc(O)c(O)c2)oc2cc(O)cc(O)c12 [quercetin] | inhibit Fe uptake |
